Measured values as given in paper PMC10747479, “Improving Bioaccessibility and Bioavailability of Isoflavone Aglycones from Chickpeas by Germination and Forming β-Cyclodextrin Inclusion Complexes” (Pharmaceutics, 2023).
Read-outs that look alike come from different tables or passages of the source.

Assays:
[1] = Oral pharmacokinetics of FMN and BCA in rat plasma after CSE or CSE/β-CD inclusion complex; format: in vivo, Sprague–Dawley (SD) rats; conditions: rats; for AUC(0-inf) / AUC(0-t) / Cmax / half-life / k el / Tmax: male, Sprague-Dawley, rat; for AUC(0-inf) / AUC(0-t) / Cmax / half-life / k el / Tmax / CL / Vd: plasma, FMN approx. 5 mg/kg, BCA approx. 18 mg/kg; for AUC(0-inf) / AUC(0-t) / Cmax / half-life / k el: po; for k el: read-out: Ke (converted); for time at which concentration in rat plasma reached the peak / relative bioavailability in the inclusion complex relative to the CSE: oral; for time at which concentration in rat plasma reached the peak: given the CSE or the inclusion complex; for relative bioavailability in the inclusion complex relative to the CSE: ratio of the AUC
Experimental: (§1) The specific pathogen-free (SPF) male Sprague–Dawley (SD) rats (average body weight, 220 ± 10 g) aged eight weeks old were purchased from Shanghai Slake Laboratory Animal Co., Ltd. (Shanghai, China). After being raised in an environment-controlled feeding room for 1 week, the SD rats were divided into three groups (groups A, B, and C), with six in each group. They were fasted for 12 h and supplied with unlimited water before the experiments. In group A, 200 mg of the CSE/β-CD inclusion complex (FMN: 1.04 mg, BCA: 3.58 mg) was weighed and prepared into a 3 mL suspension by pure water and then given to each rat by gavage. In group B, a certain amount of CSE with FMN of the same quality as that in the inclusion complex was weighed and prepared into a 3 mL suspension by pure water and then given to each rat by gavage. In group C, a certain amount of CSE, ensuring that the content of BCA was the same as that in the inclusion complex, was weighed and prepared into s 3 mL suspension by pure water and then given to each rat by gavage. The dosage of FMN and BCA in rats was controlled at approximately 5 mg/kg and 18 mg/kg, respectively. Approximately 300 μL rat retro-orbital blood samples were obtained and transferred to heparinized tubes […] at 0.083, 0.25, 0.50, 0.75, 1, 2, 4, 6, 8, 12, and 24 h following intragastric administration. After centrifuging at 3500 rpm for 10 min, the upper plasma was put in clean tubes and placed at −20 °C before use. The rats were killed using the carbon dioxide box after taking blood at the last time point. A batch of new SD rats was raised with the same grouping and administration method for the study of tissue composition. At 0.25 h after intragastric administration, the rats were killed, and the organs including hearts, livers, spleens, lungs, kidneys, and brains were quickly separated, put into centrifuge tubes, and temporarily stored at 4 °C.
To comparatively evaluate the pharmacokinetics of the isoflavones in CSE and the CSE/β-CD inclusion complex, the content of FMN and BCA in rat plasma was determined on a UPLC-MS/MS system equipped with a Waters ACQUITY UPLC and a Xevo TQ-S micro ESI-MS/MS system (Milford, America). An ACQUITY UPLC BEH-C18 (2.1 mm × 100 mm, 1.7 μm) column was applied for the separation work using 0.05% formic acid in water (A) and acetonitrile (B) as the mobile phase with a flow rate of 0.2 mL/min and a column temperature of 30 °C. The gradient elution program was as follows: 0-6 min, A 50%. The selected multiple reaction monitoring (MRM) modes in the negative ESI mode of the mass spectrometer were used for all the analytes, and the capillary voltage was set at 2.66 kV with a source temperature of 150 °C using nitrogen as the desolvation gas and cone gas. The CHL was used as an internal standard (IS).
All plasma samples were stored at −20 °C and thawed at room temperature. To precipitate the protein, a 100 μL plasma sample was precisely aspirated, adding 40 μL of the IS solutions and 260 μL of acetonitrile, and vortexing for 3 min. Then the mixture was centrifuged at 13,000 rpm for 10 min and the 5 μL supernatant was injected for = UPLC-MS/MS analysis.
Compared with the rats fed the CSE, the rats fed the inclusion complex had higher Cmax, longer elimination half-lives (t1/2), larger areas under the concentration–time curve (AUC), and lower apparent volumes of distribution (Vd) and plasma clearance (CL). […] This caused the content of FMN and BCA in rats to be higher and have a longer retention time. The relative bioavailability of the two isoflavones in the inclusion complex relative to the CSE was calculated using the ratio of the AUC. […] It is reported that β-CD and its derivatives can inhibit the activity of P-glycoprotein, which is closely related to the bioavailability of oral drugs. The decrease in P-glycoprotein activity can reduce the excretion of drugs from cells.

[2] = In vitro release in simulated gastric and intestinal fluid; format: physicochemical; conditions: artificial gastric juice and artificial intestinal juice, 37 °C, 100 rpm, up to 24 h
Experimental: According to the determination method of dissolution and release in Chinese Pharmacopoeia 2020, the in vitro sustained release of the isoflavones in the CSE/β-CD inclusion complex and CSE was determined on a SOTAX AT. 7× dissolution tester (Stetten, Switzerland) with a stirring rate of 100 rpm at 37 °C [16] using FMN and BCA as the evaluation index. Simulated gastric fluid (SGF) and simulated intestinal fluid (SIF) were used as release media. The preparation method of SGF was to mix 16.4 mL of the HCl solution (9.5–10.5% by volume) and 10 g of pepsin into 800 mL water, and finally adjust the volume to 1000 mL of water. The preparation of SIF was to add 6.8 g of potassium dihydrogen phosphate to 500 mL of water (use 0.1 M NaOH to adjust the pH to 6.8), then add 10 g of trypsin, and finally adjust the volume to 1000 mL of water. The CSE/β-CD inclusion complex (400.00 mg, containing 2.08 mg FMN and 7.16 mg BCA), CSE (94.12 mg, containing 2.08 mg FMN), and CSE (205.16 mg, containing 7.16 mg BCA) were weighed and added to 900 mL of release media, respectively. […] The sample was added to 3 times the volume of acetonitrile to remove the protein, then centrifuged at 10000 rpm for 10 min, and the obtained supernatant was analyzed by HPLC. […]

[3] = Tissue distribution of FMN and BCA in rats after oral CSE or inclusion complex; format: in vivo, Sprague–Dawley (SD) rats; conditions: 0.25 h after intragastric administration; for distribution characteristics of the contents in rat tissues: CSE or inclusion complex
Experimental: as §1
The contents of FMN and BCA in the tissues of rats were also determined by the above-established UPLC-MS/MS method.
The tissue was washed with normal saline to remove the residual blood, the water on the surface of the tissue was dried, and the tissue was weighed, cut into small pieces, and put into a centrifuge tube. Then, it was added to normal saline of the same amount as the tissue and ground into a homogenate. Then, 300 μL of the tissue homogenate was placed into a centrifuge tube, adding 60 μL of IS and 840 μL of acetonitrile to precipitate the protein. After centrifuging at 13,000 rpm for 10 min, the supernatant was collected and centrifuged again. Finally, the obtained supernatant was taken for subsequent analysis.

[4] = Inclusion ratio and drug loading of the CSE/β-CD inclusion complex; format: physicochemical; conditions: for inclusion ratio: CSE with β-CD, optimal conditions: β-CD/CSE 4:1, 40 °C, 400 rpm, 2 h; for drug loading in the CSE/β-CD inclusion complex: optimal conditions
Experimental: A saturated aqueous solution method was used to prepare the inclusion complexes. β-CD (456 mg) was dispersed into 20 mL of water and heated with a water bath. CSE was accurately weighed according to the mass ratio of β-CD/CSE at 7:1 (g/g) to 3:1 (g/g) and dissolved in a small amount of ethanol to obtain CSE ethanol suspension, which was slowly dripped into the β-CD aqueous solution under 30 to 70 °C and at a stirring speed of 200 rpm to 1000 rpm. The mixed solution was stirred for 0.5 h to 4 h. After cooling to room temperature, the mixture was placed at 4 °C for 24 h, and then filtered quickly. The filter residue was moistened with a small amount of ethanol and dried to obtain the β-CD/CSE inclusion complex. The amounts of BCA and FMN in the initial CSE (Mc) and filtrate (Mf) were determined under the same conditions as above using an Agilent 1260 Infinity II HPLC. The inclusion ratio of FMN and BCA was used as an evaluation index to optimize the preparation methods. The calculation formula of the inclusion ratio (R%) was as follows:(1) R%=1−Mf/Mc×100% where Mf is the mass of the remaining isoflavones in the filtrate and Mc is the mass of the isoflavones in the CSE initially added.

[5] = oral gavage of CSE/β-CD inclusion complex

AUC(0-inf) [1, 5] [ng·h/mL] | AUC(0-t) [1, 5] [ng·h/mL] | Cmax [1, 5] [ng/mL] | half-life [1, 5] [h] | k el [1, 5] [s⁻¹] | AUC(0-inf) ([1]; oral gavage of CSE) [ng·h/mL] | AUC(0-t) ([1]; oral gavage of CSE) [ng·h/mL] | Cmax ([1]; oral gavage of CSE) [ng/mL] | half-life ([1]; oral gavage of CSE) [h] | k el ([1]; oral gavage of CSE) [s⁻¹] | Tmax ([1]; oral gavage of CSE) [h] | CL [1, 5] [L/h] | Vd [1, 5] [L] | CL ([1]; oral gavage of CSE) [L/h] | Vd ([1]; oral gavage of CSE) [L] | time at which concentration in rat plasma reached the peak [1] [min] | relative bioavailability in the inclusion complex relative to the CSE [1] [%] | solubility and dissolution properties by forming the CSE/β-CD inclusion complex, compared with CSE [2] | content in the tissues, inclusion complex compared with CSE [3] | Structure (SMILES) | distribution characteristics of the contents in rat tissues [3] | other results
173 ± 56.3 | 102 ± 45.3 | 22.4 ± 2.45 | 7.33 ± 3.07 | 3.06e-05 | 61.9 ± 15.5 | 37.6 ± 17.7 | 13.9 ± 3.17 | 4.63 ± 0.88 | 4.17e-05 | 0.25 | 93.83 ± 29.01 | 896.37 ± 113.90 | 252.24 ± 52.73 | 1635.82 ± 92.84 | 15 | 270.7 | significantly improved | significantly higher | COc1ccc(-c2coc3cc(O)cc(O)c3c2=O)cc1 [BCA, biochanin A] | liver > kidneys > lungs > spleen > heart > brain | inclusion ratio [4]: 81.79%; drug loading in the CSE/β-CD inclusion complex [4]: 17.9 mg/g
72 ± 25.7 | 51.5 ± 12.3 | 21 ± 2.81 | 4.51 ± 2.07 | 5.56e-05 | 37 ± 12.9 | 30 ± 15.2 | 14.4 ± 1.46 | 3.84 ± 2.1 | 6.39e-05 | 0.25 | 75.79 ± 23.47 | 441.60 ± 140.88 | 148.14 ± 47.18 | 722.51 ± 197.97 | 15 | 171.6 | significantly improved | significantly higher | COc1ccc(-c2coc3cc(O)ccc3c2=O)cc1 [FMN, formononetin] | liver > kidneys > lungs > spleen > heart > brain | inclusion ratio [4]: 53.31%; drug loading in the CSE/β-CD inclusion complex [4]: 5.2 mg/g
